{"source": "patent US9944721B2", "about": "“Polysialic acid and use for treatment of neurodegenerative and neuroinflammatory diseases” (RHEINISCHE FRIEDRICH-WILHELMS UNIVERSITÄT BONN, priority 2013, dated 2018)", "key": {"[1]": {"system": "human induced pluripotent stem cell derived microglia (iPSdM-1)", "experiment": "Half maximum effective concentration for reduction of LPS-induced TNF-α gene transcript", "type": "cell-based", "conditions": "LPS 1 μg/ml, 24 hours", "protocol": "Human induced pluripotent stem cell derived microglia (iPSdM) were obtained from iPS cells. iPSdM-1 line was used in this study generated from the iLB-C-35m-r1 clone (Bonn). iPSdM-1 (here named microglia or microglial cells) were culture in N2-medium consisting of DMEM/F12 culture medium (Gibco) supplemented with 1% N2 (Invitrogen), 0.48 mM L-glutamine (Gibco) and 100 μg/ml penicillin/streptomycin (Gibco). Cells were cultured with high density and split 1:5. After splitting, cells recovered and attached again to the new dishes.\nCells were treated for 24 hours with 1 μg/ml lipopolysaccharides (LPS) and 5 nM, 15 nM, 50 nM, 150 nM, 500 nM, 1.5 μM, 5 μM, 15 μM, 50 μM or 150 μM of PSA-20. For gene transcript analysis of TNF-α, RNA was collected from cells via the RNeasy kit system (Quiagen) Reverse transcription of the RNA was performed using Super Script II reverse transcriptase (Life Technologies) and hexamer random primers (Roche). Quantitative RT-PCR with specific oligonucleotides was performed with SYBR Green PCR Master Mix (Qiagen) using the ABI 5700 Sequence Detection System (PerkinElmer). The qRT-PCR was running for 40 cycles with a Tm of 60° C. using the same primer as for the PCR. The […] method with GAPDH as internal standard was performed for qRT-PCR quantification."}, "[2]": {"system": "human macrophage cell line THP-1", "experiment": "LPS-induced TNF-alpha gene transcription in human macrophages", "type": "cell-based", "conditions": "THP-1, LPS 1 μg/ml, 24 hours; 0.15 μM and 0.5 μM; FIG. 5B", "protocol": "The human monocyte line THP-1 (ATCC TIB-202) was cultured in RPMI medium with 10% FCS, 1% sodium pyruvate and 1% penicillin/streptomycin (100×) (all Gibco, Invitrogen) in 75 ml cell culture flasks (Sarstedt). For differentiation into tissue macrophages the line was cultured for 3 hours in normal cell culture medium containing 0.5 μM phorbol 12-myristate 13-acetate (Sigma) and afterwards in phorbol 12-myristate 13-acetate free medium for at least 24 hours.\nFIG. 5B illustrates the effect of low molecular weight PSA (PSA-20) on the pro-inflammatory cytokine TNF-alpha. The human macrophage cell line THP-1 was treated with lipopolysaccharides (LPS, 1 μg/ml) and PSA-20 (different concentrations) for 24 hours. Gene transcripts for tumor necrosis factor-α a (TNFα) were determined by quantitative RT-PCR and normalized to GAPDH. In detail, RNA isolation was performed using RNeasy Mini Kit (Qiagen) and transcription with the SuperScript First-Strand Synthesis System (Invitrogen). Quantitative RT-PCR with specific oligonucleotides (GAPDH: […] (SEQ ID NO: 1) and […] (SEQ ID NO: 2); TNFα: […] (SEQ ID NO: 3) and […] (SEQ ID NO: 4)) was performed using SYBR green PCR Master Mix with the Mastercycler epgradients S (Eppendorf). Results were normalized to GAPDH. Quantification using the delta-CT method was carried out."}, "[3]": {"system": "humanized Siglec-11 transgenic mice", "experiment": "Septic encephalopathy model: TNF-alpha gene transcripts after repeated systemic LPS", "type": "in vivo", "conditions": "4x LPS plus 4x PSA-20 1 μg per gram body weight i.p., 24 hours after last application", "protocol": "Humanized Siglec-11 transgenic mice (Wang Y, 2009, dissertation, University Bonn, uniform resource name: urn:nbn:de:hbz:5N-18095) expressing human Siglec-11 under the Iba1-promoter in microglia and wildtype littermate control mice were used in this experiment. For gene transcript analysis, RNA was isolated from brains with Trizol followed with the RNeasy Mini Kit (Qiagen). Reverse transcription of RNA was performed with SuperScript III reverse transcriptase (Invitrogen) and hexamer random primers (Roche Molecular Biochemicals). Quantitative RT-PCR with specific oligonucleotides was performed with SYBR Green PCR Master Mix (Applied Biosystems) using the ABI 5700 Sequence Detection System (Perkin Elmer) and amplification protocol for the ABI 5700 Sequence Detection System. […] Results were analyzed with the ABI 5700 Sequence Detection System v.1.3 after establishing the reaction efficiency for each primer pair. Quantification using the delta-CT method was carried out.\nMice were either treated intraperitoneally with 4× lipopolysaccharide (LPS from Salmonella abortus equi S-form (ENZO Life Science), 1 μg per gram body weight) or 4×LPS (1 μg per gram body weight) plus 4×PSA-20 (1 μg per gram body weight) or 4×PBS. […] Mice were analyzed 24 hours after the last application.\nGene transcripts for TNF-alpha were determined from the total brain tissue by qRT-PCR at 24 hours after the last application."}, "[4]": {"experiment": "Biotinylated PSA-20 in serum and brain after intraperitoneal application (ELISA)", "type": "in vivo, mice", "protocol": "First, PSA-20 was conjugated with biotin and a sensitive ELISA to detect biotinylated PSA-20 was established. The PSA-20 was coupled with a biotin molecule at the sixth carbon atom of sialic acid at the terminus of the PSA-20 chains. Therefore, the terminus of PSA-20 was oxidized to an aldehyde by sodium metaperiodate. Afterwards, hydrazide coupled biotin was conjugated at room temperature to the aldehyde group to form a hydrazone bond. Purification was carried out with a desalting column (HiTrap Desalting Column GE Healthcare).\nBiotin-conjugated PSA-20 (10 μg per g body weight) was applied in adult mice by intraperitoneal application. An ELISA method was used to detect biotinylated PSA-20 in the serum and brain. For the ELISA, NeutrAvidin coated pre-blocked plates (Thermo Scientific) were washed three times with PBST (PBS+0.05% Tween-20). After washing, plasma and brain homogenate as well as defined concentrations of biotinylated PSA-20 as standard were applied for 1 h at room temperature. Plates were washed three times and were incubated with a monoclonal antibody directed against oligosialic acids (rat-anti-mouse CD56, BD Pharmingen #556325) over night at 4° C. The following day the plate were washed three times and incubated with goat anti-mouse immunoglobulin conjugated with peroxidase-HRP (Jackson ImmunoResearch). Then, plates were washed and incubated with 100 μl TMB-reagent for 30 min at room temperature. The reaction was stopped by addition of 100 μl 1N HCl and the signal was detected with an ELISA reader.\nSerum and brain tissue of one mouse was analyzed before application and at 0.5, 1, 2, 4 and 8 hours after application. The highest PSA-20 level was detected in the serum at 0.5 hours and in the brain at 2 hours. The half-time of PSA-20 in the serum and in the brain was estimated to be between 2 and 3 hours. The bioavailability of PSA-20 in the brain in relation to the serum was estimated to be between 1 and 3%. […] As can be taken from the FIG. 10C, PSA-20 was detected in the serum and the brain. […]"}, "[5]": {"conditions": "biotin-conjugated PSA-20, 10 μg per g body weight i.p., adult mice"}}}
{"substance": "poly-(α(2→8)Neu5Ac)n [PSA-20]", "values": [{"measurement": "concentration reducing the LPS-induced gene transcription of TNF-α", "setting": "[1]; FIG. 10B", "result": "≥ 0.05", "unit": "µM"}, {"measurement": "EC50", "setting": "[1]; read-out: EC50 in human microglia (reduction of LPS-induced TNF-α gene transcript by 50%)", "result": 0.09, "unit": "µM"}, {"measurement": "LPS-induced gene transcription of TNF-alpha", "setting": "[2]", "result": "reduced"}, {"measurement": "gene transcripts for TNF-alpha in the spleen", "setting": "[3]", "result": "No change"}, {"measurement": "gene transcription levels of TNF-alpha in the brain tissue", "setting": "[3]; Siglec-11 transgenic mice", "result": "reduced gene transcription levels"}, {"measurement": "passage of the blood-brain barrier", "setting": "[4]; after systemic application", "result": "passed the blood-brain barrier"}, {"measurement": "time of peak concentration in the brain", "setting": "[4]; [5]", "result": 2, "unit": "h"}, {"measurement": "time of peak concentration in the serum", "setting": "[4]; [5]", "result": 0.5, "unit": "h"}]}
